IC50 data for 84 compounds are collected here from PubChem BioAssay AID588780 (Sanford-Burnham Center for Chemical Genomics, 2011).

SMILES strings stand for the structures. Activity calls are given as the source filed them.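 The calls were made as follows: active = compounds whose fitted half-maximal concentration in the cell-protection dose series is at or below a set limit; inactive = the rest.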

For the assay, the system named is H9c2 cardiomyocytes, 2-deoxyglucose stress, ATP luminescence, 2 h. The assay can be described thus: protection of cardiomyocytes from 2-deoxyglucose injury, dose response, cell-based, 2-deoxyglucose stress, uHTS hits (AID 588780).
For orientation: IC50 means the point on the concentration scale where inhibition reaches its midpoint. Take `Cc1cccc(/N=C/c2c(O)ccc3oc4c(c23)CCCC4)n1`: the IC50 was > 79 µM (inactive).

Regarding `CC(=O)c1cccc(-c2cnc3c(NC=O)cc(-c4ccc(F)cc4)cn23)c1`, the IC50 was > 79 µM (inactive).

With `CCCCn1c(=NC(=O)c2cccnc2)c(C#N)cc2c(=O)n3cccc(C)c3nc21`, the IC50 is 33.6 µM (inactive).

For the compound `CC(C)(C)OC(=O)C[C@@H]1C/C=C\C[C@@H](CC(=O)N[C@@H](CO)Cc2ccccc2)C(=O)NC[C@@H](c2ccccc2)OC1=O`, the IC50 is 11.9 µM.

On to `CN(CC(=O)Nc1ccccc1Br)C(=O)CCc1nc2ccccc2c(=O)[nH]1`, for which the IC50 is > 79 µM (inactive).

`CCSc1nnc(N)s1`: the IC50 was > 79 µM (inactive).

As for `COc1ccc(CC(=O)N/N=C(\C)c2ccccn2)cc1`, the IC50 is 26.7 µM.

For the compound `Cc1cc(C)nc(SCc2ccc(C(=O)N/N=C/c3ccccn3)cc2)n1`, the IC50 was > 79 µM (inactive).

In the case of `N#CCSc1nc2cc(C(=O)N3CCC(C(N)=O)CC3)ccc2c2nc3ccccc3n12`, the IC50 is 15 µM.

For `O=C1NC(=O)c2c(Br)c(Br)c(Br)c(Br)c21`, the IC50 was > 79 µM (inactive).

In the case of `COc1ccc(S(=O)(=O)N(CCCN2CCCC2=O)Cc2cc3cc(C)c(C)cc3[nH]c2=O)cc1`, the IC50 is 26.9 µM.

`COc1cccc(C(=O)Nc2cccc(-c3nnc(-c4ccco4)o3)c2)c1`: the IC50 was > 79 µM (inactive).

In the case of `CCCn1nc(C(=O)OCC(=O)c2c(N)n(C)c(=O)n(C)c2=O)c2ccccc2c1=O`, the IC50 was 56.6 µM (inactive).

Take `CC1(C)Cc2c(c(N3CCOCC3)nc3sc4c(NN)ncnc4c23)CS1`: the IC50 was > 79 µM (inactive).

Regarding `Cc1c(OCC(=O)NCCN2CCOCC2)ccc2c1oc(=O)c1ccccc12`, the IC50 was 10.9 µM.

In the case of `COc1ccccc1C(=O)Nc1nc(-c2ccc3c(c2)OCCO3)cs1`, the IC50 was > 79 µM (inactive).

In the case of `COc1ccc(COc2cc(-c3cccc(OC)c3)nc3ccc(NC(=O)c4cccnc4)cc23)cc1`, the IC50 was > 79 µM (inactive).

For the compound `COc1ccc(NC(=O)N(C)C[C@H]2Oc3c(NC(=O)Nc4ccc(C(F)(F)F)cc4)cccc3C(=O)N([C@H](C)CO)C[C@@H]2C)cc1`, the IC50 is > 79 µM (inactive).

With `Cc1sc2nc(CSCC(=O)N(CCC#N)c3ccccc3F)[nH]c(=O)c2c1C`, the IC50 was 27.9 µM.

Consider `Cc1ccc(-c2nn3c(-c4ccco4)nnc3c3ccccc23)cc1S(=O)(=O)NCC1CCCO1` (centres undefined), for which the IC50 is 23.3 µM.

Take `COc1cc(OC)cc(C(=O)NNC(=O)c2ccccn2)c1`: the IC50 is > 79 µM (inactive).

In the case of `O=C(COC(=O)Cn1[nH]c(=O)c2ccccc2c1=O)Nc1c(Cl)cccc1C(F)(F)F`, the IC50 is > 79 µM (inactive).

With `Cc1ccc(S(=O)(=O)N2CCN(C(=O)c3cc(=O)[nH]c4ccccc34)CC2)c(C)c1`, the IC50 is 16.8 µM.

Consider `O=c1[nH]c2cccc(F)c2n2cccc12`, for which the IC50 was 8.05 µM.

Turning to `COc1ccc(-c2cc(NC(C)=O)c3ncc(-c4ccc(OC)c(OC)c4)n3c2)cc1OC`, the IC50 was > 79 µM (inactive).

Consider `O=C(CCc1nc2ccccc2c(=O)[nH]1)N1CCN(S(=O)(=O)c2cc(Cl)ccc2Cl)CC1`, for which the IC50 is > 79 µM (inactive).

As for `O=c1[nH]nc(-c2ccc(NCCO)c([N+](=O)[O-])c2)c2ccccc12`, the IC50 was > 79 µM (inactive).

For `COC(=O)c1[nH]c2cc(OC)c(OC)cc2c1/C=N/Nc1ccccc1`, the IC50 was > 79 µM (inactive).

For `CC1(C)CC2CC(C)(CN2C(=O)COC(=O)Cn2[nH]c(=O)c3ccccc3c2=O)C1` (centres undefined), the IC50 was > 79 µM (inactive).

Regarding `O=c1cc(-c2cccnc2)oc2c1ccc1ccccc12`, the IC50 was 12.6 µM.

Turning to `Cn1c(=O)c2c(nc(Br)n2Cc2ccc3ccccc3c2)n(C)c1=O`, the IC50 is > 79 µM (inactive).

As to `COc1ccc(OC)c(C(=O)COC(=O)c2ccc([N+](=O)[O-])o2)c1`, the IC50 is > 79 µM (inactive).

On to `CC(=O)Nc1cccc(-c2cc(NC=O)c3ncc(-c4ccc(C(C)=O)cc4)n3c2)c1`, for which the IC50 was > 79 µM (inactive).

Consider `O=C(N/N=C/c1ccncc1)c1ccc(COc2cccc3cccnc23)cc1`, for which the IC50 was > 79 µM (inactive).

For `CCOCCCNC(=O)CCC(=O)NNc1nc2ccccc2c2nc(-c3ccccc3)nn12`, the IC50 is 54 µM (inactive).

Consider `COC(=O)/C(=C(O)\C=C\c1ccccc1[N+](=O)[O-])c1nc2ccccc2[nH]1`, for which the IC50 is > 79 µM (inactive).

With `CC1(C)CC(=O)C2=C(C1)N(CCN1CCOCC1)C1=C(C(=O)CC(C)(C)C1)C2c1ccc(Cl)cc1`, the IC50 was 31.3 µM (inactive).

For the compound `COc1cc(-c2cc3nc(NCCc4ccc(S(N)(=O)=O)cc4)ccn3n2)cc(OC)c1OC`, the IC50 is 15.8 µM.

For the compound `CCN1C(=O)/C(=C/c2nc3ccccc3c(=O)n2-c2ccccc2)c2ccccc21`, the IC50 was > 79 µM (inactive).

`COc1cc2[nH]c(=O)n3nc(-c4ccccc4)nc3c2cc1OC`: the IC50 was > 79 µM (inactive).

As for `COc1cccc(C(=O)Nc2nnc(-c3ccc(Cl)cc3)o2)c1`, the IC50 was 14.9 µM.

In the case of `O=C(c1cc(=O)[nH]c2ccccc12)N1CCN(S(=O)(=O)c2ccc3ccccc3c2)CC1`, the IC50 was 14.5 µM.

Consider `O=C(COC(=O)CCc1nc2ccccc2c(=O)[nH]1)NCc1ccc(F)cc1`, for which the IC50 was > 79 µM (inactive).

As to `O=C(N/N=C/c1ccc2c(c1)OCO2)c1ccc(NC(=O)c2ccccc2Cl)cc1`, the IC50 is 16.2 µM.

With `CCOCCn1ccc2c(OCC(=O)Nc3cc(OC)ccc3OC)cccc2c1=O`, the IC50 was > 79 µM (inactive).

With `O=C1c2ccccc2NC(c2ccc(-c3cccc([N+](=O)[O-])c3)o2)N1O` (centres undefined), the IC50 is 28.4 µM.

As for `O=C(Nc1nc(-c2ccccn2)cs1)c1ccc(-c2ccccc2F)o1`, the IC50 was > 79 µM (inactive).

Turning to `CCOC(=O)c1cccc(NC(=O)CSc2nc3ccccc3c(=O)n2CCOC)c1`, the IC50 is 34.1 µM (inactive).

Consider `COC(=O)c1[nH]c2ccccc2c1NC(=O)CNC1CCCCC1`, for which the IC50 was > 79 µM (inactive).

`O=C(CSc1nc2ccccc2c(=O)[nH]1)N1CCN(S(=O)(=O)c2ccccc2)CC1`: the IC50 was > 79 µM (inactive).

Regarding `Cc1ccc(C(=O)Nc2cccc(C(F)(F)F)c2)cc1NC(=O)c1csc(-c2ccncc2)n1`, the IC50 is > 79 µM (inactive).

Regarding `Fc1ccc(NC(=S)Nc2ccc3nccnc3c2)cc1`, the IC50 is > 79 µM (inactive).

As for `O=C(COc1ccc([N+](=O)[O-])cc1)Nc1nc(-c2ccccn2)cs1`, the IC50 was > 79 µM (inactive).

In the case of `CC1(C)Oc2ccc3ccc(=O)oc3c2/C(=C/Nc2ccccn2)C1=O`, the IC50 is 10.2 µM.

Turning to `CCOc1ccccc1N1CC(O)=C(c2nc3ccccc3s2)C1=N`, the IC50 was > 79 µM (inactive).

`CCC(=O)OCCNc1cc(SCCC(=O)OC)c2nonc2c1[N+](=O)[O-]`: the IC50 is > 79 µM (inactive).

Turning to `Cn1c(C(=O)NCCc2ccsc2)cc2c(=O)n(C)c3ccccc3c21`, the IC50 was > 79 µM (inactive).

In the case of `CCCN(CCC)S(=O)(=O)c1ccc(C(=O)Nc2nnc(-c3cc(OC)cc(OC)c3)o2)cc1`, the IC50 is 9.06 µM.

In the case of `N#Cc1ccccc1OCC(=O)Nc1nc(-c2ccccn2)cs1`, the IC50 is > 79 µM (inactive).

As to `O=C1N[C@H](Cc2ccccc2)COC(=O)[C@@H](Cc2ccc(F)cc2)C/C=C\C[C@H]1CC(=O)N(CCO)Cc1ccccc1`, the IC50 was 20.5 µM.

As to `CCOC(=O)c1nc(Nc2ccc(C(C)=O)cc2)c2ccccc2n1`, the IC50 is 18.9 µM.

For `O=C(N/N=C/c1ccccn1)c1cc(C2CC2)nc2ccccc12`, the IC50 was > 79 µM (inactive).

In the case of `COc1ccc(-c2oc3c(OC)c(OC)c(OC)c(O)c3c(=O)c2OC)cc1OC`, the IC50 is > 79 µM (inactive).

Turning to `O=C1c2ccccc2NC(c2ccc(Cl)cc2Cl)N1O` (centres undefined), the IC50 is 35 µM (inactive).

Consider `CC(C)=CCc1ccc(O)c(=O)cc1C(C)C`, for which the IC50 was > 79 µM (inactive).

Consider `CCCCc1cc(=O)oc2cc(O)ccc12`, for which the IC50 was > 79 µM (inactive).

Take `CC(Oc1cccc(Br)c1)C(=O)NNC(=O)c1ccccn1` (centres undefined): the IC50 was > 79 µM (inactive).

Turning to `CCOc1ccc(CCNC(=O)c2cc3c(C)nccc3[nH]c2=O)cc1OCC`, the IC50 is 12.4 µM.

As for `COc1cc(-c2cc(C(=O)N3CCN(c4ccccn4)CC3)c3ccccc3n2)cc(OC)c1OC`, the IC50 is 14.4 µM.

As for `N#CCCSc1ccccc1NC(=O)c1cc(=O)c2ccccc2o1`, the IC50 is > 79 µM (inactive).

With `COc1ccc(NC(=O)C(OC(=O)c2ccc([N+](=O)[O-])o2)c2ccccc2)cc1Cl` (centres undefined), the IC50 was > 79 µM (inactive).

In the case of `Cc1ccc(C=NNc2nc3c([nH]2)c(=O)n(C)c(=O)n3C)cc1`, the IC50 was 11.8 µM.

For the compound `CC(C)c1ccccc1NC(=O)COC(=O)c1c2c(nc3ccccc13)CCN(Cc1ccccc1)C2`, the IC50 was > 79 µM (inactive).

As to `CC(C)=NNc1cnnc2ccc([N+](=O)[O-])cc12`, the IC50 is 12.2 µM.

For the compound `O=C(CNC(=O)c1cccc(F)c1)N/N=C/c1cc(Br)ccc1OC(=O)/C=C/c1ccco1`, the IC50 was > 79 µM (inactive).

As for `COc1cc(NC(=O)c2c(OC)cccc2OC)ccc1NC(=O)c1cc2ccccc2o1`, the IC50 is 12.7 µM.

As for `CCCCn1nc(C(=O)Oc2ccc3c(C)cc(=O)oc3c2)c2ccccc2c1=O`, the IC50 is > 79 µM (inactive).

As to `Cc1ccc(N(CCC#N)C(=O)CSc2nc3ccccc3c(=O)[nH]2)cc1`, the IC50 is > 79 µM (inactive).

Consider `COc1ccc(-c2ccc(Nc3ccc(S(=O)(=O)N4CCCC4)cc3)nn2)cc1OC`, for which the IC50 was 25 µM.

In the case of `CCCCCCn1cnc2c(c1=O)c1nc3ccccc3nc1n2/N=C/c1ccco1`, the IC50 is > 79 µM (inactive).

For `C=CC[C@@H](CC(=O)NCCO)C(=O)NC[C@H](OC(=O)[C@@H](CC=C)Cc1ccc(F)cc1)c1ccccc1`, the IC50 is > 79 µM (inactive).

In the case of `CCOC(=O)[C@H]1[C@H]2COc3ccc(Br)cc3[C@@H]2N2C(=O)c3cc(OC)c(OC)cc3NC(=O)[C@@]12C`, the IC50 is 40 µM (inactive).

Take `c1cc2[nH]snc2c2nc(C3CC3)nc12`: the IC50 was 10.2 µM.

For the compound `Cc1ccc(-n2cc(-c3ccccc3)c3c(N4CCOCC4)ncnc32)cc1`, the IC50 was > 79 µM (inactive).
